Laboratory results from patent publication US20230150922A1, “Fluorinated Derivatives of Gabapentin and Methods of Use Thereof” (The General Hospital Corporation, priority 2020, published 2023).
Like-named read-outs stand apart in the source and are kept apart here.

Legend:
PET imaging of mice = details: FIG. 3F
Experimental: microPET/CT: mice and rats were anesthetized with isoflurane and positioned in the bed of a microPET/CT instrument. […] Animals were imaged using dynamic PET from 0 to 120 min to provide greatest contrast.
Data analysis: PET images were reconstructed using the scanner software and a rat brain atlas automatically fitted to the data using VivoQuant. Time activity curves (TACs) were extracted for multiple brain regions and spinal cord segments (lumbar, thoracic and cervical cord).

[1] = PET imaging in rhesus macaques, baseline and gabapentin blocking scan; details: for specific (displaceable) binding in brain by PET: coinjection of gabapentin (5 mg/kg); for brain penetration by PET: ~5 mCi i.v.
Text: General imaging procedure: The rhesus monkey was sedated by intramuscular injection of ketamine in its housing facility. Following sedation, the animal was intubated and placed inside a primate transport cart. The animal was transported to the scanner room and laid on the scanner bed in supine position. […] Vital signs including heart rate, respiratory rate, SpO2, exhaled CO2, blood pressure and temperature were continuously monitored for the duration of the scan. One intravenous catheter was placed in the saphenous vein for administration of the tracer. One intraarterial catheter was placed in the posterior tibial artery for blood sampling. […] Selected plasma samples were analyzed for radiometabolites using radioHPLC. MRI was coregistered to the PET/CT and TACs extracted for each brain region defined on an MR atlas.
Study design: We scanned two male rhesus macaques. Each monkey was scanned two times. In the first session, we performed 3h dynamic scans (baseline) of each monkey. On the second session, the monkey underwent a blocking scan with coinjection of gabapentin (5 mg/kg).
Data analysis: Pharmacokinetic modeling using metabolite-corrected arterial input function was performed. Volume of distribution (VT), binding potential (BP) other parameters were calculated.

[2] = cited from earlier work; for patients with decreases in self-reported pain: oral

NCC1(CC(=O)O)CCC(F)CC1 (stereo not drawn) [cis-4F-GBP]
brain entry by PET (PET imaging of mice): get into the brain

NC[C@]1(CC(=O)O)CC[C@H]([18F])CC1 [cis-[^18F]4F-GBP, cis-[^18F]4-fluoro-gabapentin]
specific (displaceable) binding in brain by PET [1]: clear specific (displaceable) binding
specific (displaceable) binding in brain by PET ([1]; listed as cis isomer): partial displacement
brain penetration by PET [1]: significant brain penetration

NCC1(CC(=O)O)CCCCC1 [gabapentin]
patients with decreases in self-reported pain ([2]; diabetic neuropathy): 52%
patients with decreases in self-reported pain ([2]; postherpetic neuralgia): 46%
subjects with reduction in facial pain ([2]; trigeminal neuralgia, 43 out of 92 subjects): 46%

NC[C@]1(CC(=O)O)CC[C@@H](F)CC1 [trans-4F-GBP]
brain entry by PET (PET imaging of mice): get into the brain

NCC1(CC(=O)O)CCC([18F])CC1 (stereo not drawn) [trans-[^18F]4F-GBP, trans-[^18F]4-fluoro-gabapentin]
brain penetration by PET [1]: significant brain penetration
